In patent US20090318544A1, “CRYSTALLINE FORM OF (2S)-(-)-N-(6-CHLORO-2,3-DIHYDRO-BENZO[1,4]DIOXIN-2-YLMETHYL)-SULFAMIDE” (priority 2008, published 2009):

Tests used:
Assay type in all cases: physicochemical
[1] = TGA (Thermogravimetric Analysis) weight loss
Protocol: The weight loss for the sample was obtained using a TA Instruments TGA […] thermogravimetric calorimeter. The sample was analyzed as received and was program heated from ambient to 120° C. at 10° C./min under nitrogen purge.

[2] = Stability to temperature and humidity, concluded from DSC, TGA and DVS results; conditions: solid state; conclusion from the results above
Protocol: DSC (Differential Scanning Calorimetry) was measured for a representative sample of crystalline form (IS-VI), as shown in FIG. 2. DSC analysis of the sample was performed using a TA Instruments DSC Q1000 differential scanning calorimeter. The sample was analyzed as received in an open TA Instrument aluminum sample pan and was program heated from ambient to 120° C. at 10° C./min under nitrogen purge.
The weight loss for the sample was obtained using a TA Instruments TGA Q5000IR thermogravimetric calorimeter. The sample was analyzed as received and was program heated from ambient to 120° C. at 10° C./min under nitrogen purge.
(§1) A representative sample of crystalline form (IS-VI) was subjected to DVS (Dynamic Vapor Sorption) cycling humidity conditions to determine hydgroscopicity, as shown in FIG. 4. The sample was analyzed using a Surface Measurement System DVS-1 Dynamic Vapor Sorption System. The sample was analyzed full cycle in step mode at 25° C. from 0-90% RH in 10% RH increments. The equilibration conditions set were: dm/dt of 0.0007%/min, dm/dt window of 5 minutes, and minimum and maximum stages of 15 and 360 minutes. Data was collected in 1 minute intervals. Nitrogen was used as the carrier gas. The results from the DVS measurements indicate that crystalline form (IS-VI) is non-hygoscopic

[3] = DVS (Dynamic Vapor Sorption) cycling humidity, hygroscopicity; conditions: full cycle in step mode at 25° C., 0-90% RH in 10% RH increments
Protocol: as §1

NS(=O)(=O)NC[C@H]1COc2cc(Cl)ccc2O1 [crystalline form (IS-VI), (2S)-(−)-N-(6-chloro-2,3-dihydro-benzo[1,4]dioxin-2-ylmethyl)-sulfamide]
hydrate state indicated by TGA ([1]; ambient to 120° C. at 10° C./min under nitrogen purge): non-hydrate | weight loss by TGA ([1]; heated from ambient to 120° C. at 10° C./min under nitrogen purge, ambient temperature up to and including melting): No weight loss was observed | stability to temperature and humidity [2]: exhibits stability to temperature and humidity | hygroscopicity by DVS [3]: non-hygoscopic
